Data published in patent publication US9310353B2, “Method for evaluating bioavailable zinc” (The Procter & Gamble Company, priority 2014, dated 2016).
Marks after values point to notes of the source that are not given here.

Columns and labels:
TR146 cells [1] = experiment: Flux of Zn salts in TR146 cells (FLIPR, FluoZin-3 AM); type: cell-based; details: for % of Zn Lactate Flux: Zn-lactate = 100%
Experimental: (§1) Measurement of Zn uptake into TR146 cells was done using a FLIPR (Fluorescent Imaging Plate Reader) assay. The assay was established using a cell membrane permeable version of Zn dye, FluoZin-3 AM (Life Technologies, Grand Island, N.Y.). TR146 cells were grown in 15 ml growth medium [high glucose DMEM (Dulbecco's Modification of Eagle's Medium) supplemented with 10% FBS (fetal bovine serum), 100 units/ml penicillin and 100 μg/ml streptomycin in a 75 cm^2 flask for 3 days at 37° C. in a mammalian cell culture incubator set at 5% CO2. Cells were detached with addition of 10 ml of PBS (phosphate buffered saline) and gentle hand shaking, and transferred to a 50 ml tube and centrifuged at 850 rpm for 3 minutes to remove PBS. After centrifugation, a pellet of cells was formed in the bottom of the tube separating them from the supernatant solution. The supernatant was discarded and the cell pellet suspended in 1 ml of fresh growth medium to which 5 μl (12.5 μg) of FluoZin-3 AM Zn indicator was added and incubated for 30 minutes with gentle shaking. FluoZin-3 AM is a fluorescent dye used for quantifying intracellular Zn concentrations in the 1 to 100 nM to range. At the end of the 30 minutes, 45 ml of assay buffer [1×HBSS (Hank's Balanced Salt Solution), 20 mM HEPES (4-(2-Hydroxyethyl)-1-piperazineethanesulfonic acid)] was added to wash the cells and the resulting combination was then centrifuged at 850 rpm for 3 minutes to remove excess buffer and FluoZin-3 AM Zn indicator. The pelleted cells were re-suspended in 10 ml assay buffer and 90 μl aliquots (˜50,000 cells) per well delivered to a 96-well assay plate and the plate is placed into a fluorometric imaging plate reader (FLIPR384 from Molecular Devices, Sunnyvale, Calif.) and basal fluorescence recorded (excitation wave length 494 nm and emission wave length 516 nm). Then Zn salt (for example Zn-lactate) was added and the increase in fluorescence was recorded for 5 minutes. Zn-flux observed with different Zn salts with Zn-lactate value as reference (100%) is shown below in TABLE 2.

TR146 cells [2] = experiment: Chelant effects on Zn flux via TR146 measurements (FLIPR); type: cell-based; details: relative to the flux of the Zn lactate control; for 5 micro M Chelant Control / 50 micro M Chelant Control: chelant alone, no Zn
Source text: These combinations were then placed into growth media and measurement of Zn uptake into TR146 cells was done using a FLIPR (Fluorescent Imaging Plate Reader) assay, as described in EXAMPLE 2.

TR146 cells [3] = experiment: Polyquats blocking Zn uptake into TR146 cells (FLIPR); type: cell-based; details: Control Zn lactate
Experimental: as §1, with “TABLE 2. […]” for “TABLE 2.”

TR146 cells [4] = experiment: Bioavailability of Zn from formulated dentifrices and rinses, Zn uptake by TR146 cells (FLIPR); type: cell-based; details: 0.01% Dentifrices A-D tested on the TR146 cells; Zn Lactate Control = 100%
Experimental: (§2) Measurement of Zn uptake into TR146 cells was done using a FLIPR (Fluorescent Imaging Plate Reader) assay. The assay was established using a cell membrane permeable version of Zn dye, FluoZin-3 AM (Life Technologies, Grand Island, N.Y.). TR146 cells were grown in 15 ml growth medium [high glucose DMEM (Dulbecco's Modification of Eagle's Medium) supplemented with 10% FBS (fetal bovine serum), 100 units/ml penicillin and 100 μg/ml streptomycin in a 75 cm^2 flask for 3 days at 37° C. in a mammalian cell culture incubator set at 5% CO2. Cells were detached with addition of 10 ml of PBS (phosphate buffered saline) and gentle hand shaking, and transferred to a 50 ml tube and centrifuged at 850 rpm for 3 minutes to remove PBS. […] FluoZin-3 AM is a fluorescent dye used for quantifying intracellular Zn concentrations in the 1 to 100 nM to range. […] The pelleted cells were re-suspended in 10 ml assay buffer and 90 μl aliquots (˜50,000 cells) per well delivered to a 96-well assay plate and the plate is placed into a fluorometric imaging plate reader (FLIPR384 from Molecular Devices, Sunnyvale, Calif.) and basal fluorescence recorded (excitation wave length 494 nm and emission wave length 516 nm). Then Zn salt (for example Zn-lactate) was added and the increase in fluorescence was recorded for 5 minutes. […]

TR146 cells [5] = experiment: Effects of cationic polymers and dentifrice binders on uptake of zinc lactate by TR146 cells; type: cell-based; details: 50 μM Zn Lactate alone (reference)
Source text: After centrifugation, a pellet of cells was formed in the bottom of the tube separating them from the supernatant solution.

TR146 cells [6] = experiment: Competitive inhibition of Zn flux from zinc chloride by amine polymers in TR146 cells; type: cell-based; details: ZnCl2 140 uM alone (reference)
Experimental: as §2

TR146 cells [7] = experiment: Screening of Zn indicators by Zn uptake into TR146 cells (FLIPR); type: cell-based; details: Zn indicators screened using TR146 cells
Experimental: As with most metal ions, the choice of indicator is dependent on the cell type, ion channel, and metal specificity.
as §2, with “To screen the Zn indicators, measurement of” for “Measurement of”, “of Zn-indicator,” for “of Zn dye,”, “grown to confluency” for “grown”, “CO2.” for “CO2. Cells were detached with addition of 10 ml of PBS (phosphate buffered saline) and gentle hand shaking, and transferred to a 50 ml tube and centrifuged at 850 rpm for 3 minutes to remove PBS.”, “plate was” for “plate is”

[8] = read-out: Affinity Kd (Zn^2+); cited from earlier work
[9] = Zn salt concentration Saturated

Structure (SMILES): CC(=O)[O-].CC(=O)[O-].[Zn+2] [ZnAcetate]
- Fluorescence Unit (TR146 cells [1]; Zn salt concentration 10 uM): 48547.79
- % of Zn Lactate Flux (TR146 cells [1]; Zn salt concentration 10 uM): 102.72%

Structure (SMILES): O=P(O)(O)O[C@H]1[C@H](OP(=O)(O)O)[C@@H](OP(=O)(O)O)[C@H](OP(=O)(O)O)[C@@H](OP(=O)(O)O)[C@H]1OP(=O)(O)O [Phytic acid]
- 5 micro M Chelant Control (TR146 cells [2]): 0.00%
- 50 micro M Chelant Control (TR146 cells [2]): 0.00%
- Zn flux, 5 micro M Chelant + 5 micro M Zn lactate (TR146 cells [2]): 20.07%
- Zn flux, 50 micro M Chelant + 50 micro M Zn lactate (TR146 cells [2]): 33.87%

Structure (SMILES): O=C([O-])CC(O)(CC(=O)[O-])C(=O)[O-].[Na+].[Na+].[Na+] [Sodium citrate]
- 5 micro M Chelant Control (TR146 cells [2]): 0.00%
- 50 micro M Chelant Control (TR146 cells [2]): 0.00%
- Zn flux, 5 micro M Chelant + 5 micro M Zn lactate (TR146 cells [2]): 104.83%
- Zn flux, 50 micro M Chelant + 50 micro M Zn lactate (TR146 cells [2]): 43.63%

Structure (SMILES): [O-2].[Zn+2] [ZnOxide]
- Fluorescence Unit (TR146 cells [1]; [9]): 50391.21
- % of Zn Lactate Flux (TR146 cells [1]; [9]): 106.62%

Structure (SMILES): O=P(O)(O)OP(=O)(O)OP(=O)(O)O [Sodium tripolyphosphate]
- 5 micro M Chelant Control (TR146 cells [2]): 0.00%
- 50 micro M Chelant Control (TR146 cells [2]): 0.00%
- Zn flux, 5 micro M Chelant + 5 micro M Zn lactate (TR146 cells [2]): 92.99%
- Zn flux, 50 micro M Chelant + 50 micro M Zn lactate (TR146 cells [2]): 0.00%
- Zn flux, 50 micro M Chelant + 50 micro M Zn lactate (TR146 cells [2]; listed as sodium tripolyphosphate): did not allow for any measureable levels of Zn to be detected

Structure (SMILES): CC(O)C(=O)[O-].CC(O)C(=O)[O-].[Zn+2] (centres unmarked) [Zn Lactate]
- Fluorescent Counts with no Zn (TR146 cells [3]; no quat): 24.5
- Fluorescent counts with Zn (TR146 cells [3]; no quat): 1774.8
- % Reduction compared to Zn control (TR146 cells [3]; no quat (reference)): 0%
- % of Zn Lactate Control (% Zn uptake by TR146 cells) (TR146 cells [4]): 100%
- Zn flux, Zn Only (TR146 cells [2]; No chelant, 50 micro M Zn Lactate): 100%*
- Fluorescence Units (percentage of zinc lactate) (TR146 cells [5]): 100%

Structure (SMILES): O=P([O-])([O-])[O-].O=P([O-])([O-])[O-].[Zn+2].[Zn+2].[Zn+2] [ZnPhosphate]
- Fluorescence Unit (TR146 cells [1]; [9]): 49686.65
- % of Zn Lactate Flux (TR146 cells [1]; [9]): 105.13%

Structure (SMILES): [O-][n+]1ccccc1[S-].[O-][n+]1ccccc1[S-].[Zn+2] [ZnPyrithione]
- Fluorescence Unit (TR146 cells [1]; Zn salt concentration 10 mM): 50467.87
- % of Zn Lactate Flux (TR146 cells [1]; Zn salt concentration 10 mM): 106.78%

Structure (SMILES): NCC(=O)[O-].NCC(=O)[O-].[Zn+2] [ZnGlycinate]
- Fluorescence Unit (TR146 cells [1]; Zn salt concentration 4.40%): 41086.61
- % of Zn Lactate Flux (TR146 cells [1]; Zn salt concentration 4.40% (206 mM)): 86.93%

Structure (SMILES): O=P([O-])(O)OP(=O)([O-])O.[Na+].[Na+] [Sodium acid pyrophosphate]
- 5 micro M Chelant Control (TR146 cells [2]): 0.00%
- 50 micro M Chelant Control (TR146 cells [2]): 0.00%
- Zn flux, 5 micro M Chelant + 5 micro M Zn lactate (TR146 cells [2]): 82.87%
- Zn flux, 50 micro M Chelant + 50 micro M Zn lactate (TR146 cells [2]): 0.00%
- Zn flux, 50 micro M Chelant + 50 micro M Zn lactate (TR146 cells [2]; listed as sodium acid pyrophosphate): did not allow for any measureable levels of Zn to be detected

Structure (SMILES): [Cl-].[Cl-].[Zn+2] [ZnCl2]
- Fluorescence Unit (TR146 cells [1]; Zn salt concentration 1 mM): 47853.41
- % of Zn Lactate Flux (TR146 cells [1]; Zn salt concentration 1 mM): 101.25%
- Zn Flux as a percentage of the Zn Chloride Control (TR146 cells [6]): 100%

Structure (SMILES): O=C([O-])[C@H](O)[C@@H](O)[C@H](O)[C@H](O)CO.[Na+] [Sodium D-gluconate]
- 5 micro M Chelant Control (TR146 cells [2]): 1.51%
- 50 micro M Chelant Control (TR146 cells [2]): 0.00%
- Zn flux, 5 micro M Chelant + 5 micro M Zn lactate (TR146 cells [2]): 101.31%
- Zn flux, 50 micro M Chelant + 50 micro M Zn lactate (TR146 cells [2]): 112.99%

Structure (SMILES): O=P1([O-])OP(=O)([O-])OP(=O)([O-])OP(=O)([O-])OP(=O)([O-])OP(=O)([O-])O1.[Na+].[Na+].[Na+].[Na+].[Na+].[Na+] [Sodium Hexametaphosphate]
- 50 micro M Chelant Control (TR146 cells [2]): 0.00%
- Zn flux, 5 micro M Chelant + 5 micro M Zn lactate (TR146 cells [2]): 105.02%
- Zn flux, 50 micro M Chelant + 50 micro M Zn lactate (TR146 cells [2]): 63.81%*

Structure (SMILES): O=S(=O)([O-])[O-].[Zn+2] [ZnSO4]
- Fluorescence Unit (TR146 cells [1]; Zn salt concentration 1 mM): 47853.41
- % of Zn Lactate Flux (TR146 cells [1]; Zn salt concentration 1 mM): 101.25%

Structure (SMILES): COc1ccc(N(CC(=O)O)CC(=O)O)c(OCCOc2cc(-c3c4cc(F)c(=O)cc-4oc4cc(O)c(F)cc34)ccc2NCC(=O)O)c1 [FluoZin-3]
- affinity for the flux of Zn into the TR146 cell line (TR146 cells [7]): most affinity for the flux of Zn into the TR146 cell line
- Kd [8]: 15 nM

Structure (SMILES): O=C([O-])C(=O)[O-].[Zn+2] [ZnOxalate]
- Fluorescence Unit (TR146 cells [1]; [9]): 55389.93
- % of Zn Lactate Flux (TR146 cells [1]; [9]): 117.2%
